“Also recorded” adds a separate entry of the source. Like-named read-outs stand apart in the source and are kept apart here.
Tests used:
[1] = target: kinase named in conditions (Homo sapiens, UniProt P49336); test: SelectScreen kinase profiling, SSBK LanthaScreen Binding SP Technology; conditions: CDK8/cyclin C, 10 μM
[2] = target: kinase named in conditions (Homo sapiens, UniProt Q9NY57); test: as above; conditions: STK32B (YANK2), 10 μM
[3] = target: kinase named in conditions (Homo sapiens, UniProt Q9Y616); test: as above; conditions: IRAK3, 10 μM
[4] = target: kinase named in conditions (Homo sapiens, UniProt P07949, G691S); test: as above; conditions: RET G691S, 10 μM
Chain of kinase named in conditions (Homo sapiens, UniProt P07949, G691S) (P07949 29-1114 G691S): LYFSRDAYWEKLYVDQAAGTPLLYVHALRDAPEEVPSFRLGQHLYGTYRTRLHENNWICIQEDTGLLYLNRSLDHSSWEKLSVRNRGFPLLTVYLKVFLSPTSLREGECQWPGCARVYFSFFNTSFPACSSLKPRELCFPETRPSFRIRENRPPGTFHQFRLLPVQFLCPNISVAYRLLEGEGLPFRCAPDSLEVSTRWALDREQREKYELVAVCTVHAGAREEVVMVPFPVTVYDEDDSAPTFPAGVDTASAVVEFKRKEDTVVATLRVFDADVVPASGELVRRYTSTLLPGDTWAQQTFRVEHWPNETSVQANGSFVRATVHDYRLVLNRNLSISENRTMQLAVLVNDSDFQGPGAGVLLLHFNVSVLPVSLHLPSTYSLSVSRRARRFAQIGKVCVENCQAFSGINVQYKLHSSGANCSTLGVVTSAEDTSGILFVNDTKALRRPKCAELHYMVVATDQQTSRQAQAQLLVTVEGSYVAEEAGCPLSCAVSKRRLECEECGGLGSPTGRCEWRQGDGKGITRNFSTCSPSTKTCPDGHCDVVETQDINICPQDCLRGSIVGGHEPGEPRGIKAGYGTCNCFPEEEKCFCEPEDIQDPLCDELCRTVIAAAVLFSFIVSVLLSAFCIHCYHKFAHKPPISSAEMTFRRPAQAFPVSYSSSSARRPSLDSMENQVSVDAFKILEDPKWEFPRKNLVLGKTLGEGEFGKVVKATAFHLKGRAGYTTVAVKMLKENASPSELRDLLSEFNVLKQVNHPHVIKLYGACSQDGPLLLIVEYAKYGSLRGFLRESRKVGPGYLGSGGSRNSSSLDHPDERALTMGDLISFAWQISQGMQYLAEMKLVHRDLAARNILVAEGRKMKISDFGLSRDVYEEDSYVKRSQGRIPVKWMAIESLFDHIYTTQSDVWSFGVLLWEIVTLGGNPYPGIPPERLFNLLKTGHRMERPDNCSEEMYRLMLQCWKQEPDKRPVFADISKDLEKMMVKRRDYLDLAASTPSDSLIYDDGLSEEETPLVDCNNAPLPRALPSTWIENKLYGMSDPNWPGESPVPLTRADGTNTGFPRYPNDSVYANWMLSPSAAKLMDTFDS

[5] = target: kinase named in conditions (Homo sapiens, UniProt O14976); test: as above; conditions: GAK, 10 μM
[6] = target: kinase named in conditions (Homo sapiens, UniProt P08581, D1228H); test: as above; conditions: MET D1228H, 10 μM
Chain of kinase named in conditions (Homo sapiens, UniProt P08581, D1228H) (P08581 25-1390 D1228H): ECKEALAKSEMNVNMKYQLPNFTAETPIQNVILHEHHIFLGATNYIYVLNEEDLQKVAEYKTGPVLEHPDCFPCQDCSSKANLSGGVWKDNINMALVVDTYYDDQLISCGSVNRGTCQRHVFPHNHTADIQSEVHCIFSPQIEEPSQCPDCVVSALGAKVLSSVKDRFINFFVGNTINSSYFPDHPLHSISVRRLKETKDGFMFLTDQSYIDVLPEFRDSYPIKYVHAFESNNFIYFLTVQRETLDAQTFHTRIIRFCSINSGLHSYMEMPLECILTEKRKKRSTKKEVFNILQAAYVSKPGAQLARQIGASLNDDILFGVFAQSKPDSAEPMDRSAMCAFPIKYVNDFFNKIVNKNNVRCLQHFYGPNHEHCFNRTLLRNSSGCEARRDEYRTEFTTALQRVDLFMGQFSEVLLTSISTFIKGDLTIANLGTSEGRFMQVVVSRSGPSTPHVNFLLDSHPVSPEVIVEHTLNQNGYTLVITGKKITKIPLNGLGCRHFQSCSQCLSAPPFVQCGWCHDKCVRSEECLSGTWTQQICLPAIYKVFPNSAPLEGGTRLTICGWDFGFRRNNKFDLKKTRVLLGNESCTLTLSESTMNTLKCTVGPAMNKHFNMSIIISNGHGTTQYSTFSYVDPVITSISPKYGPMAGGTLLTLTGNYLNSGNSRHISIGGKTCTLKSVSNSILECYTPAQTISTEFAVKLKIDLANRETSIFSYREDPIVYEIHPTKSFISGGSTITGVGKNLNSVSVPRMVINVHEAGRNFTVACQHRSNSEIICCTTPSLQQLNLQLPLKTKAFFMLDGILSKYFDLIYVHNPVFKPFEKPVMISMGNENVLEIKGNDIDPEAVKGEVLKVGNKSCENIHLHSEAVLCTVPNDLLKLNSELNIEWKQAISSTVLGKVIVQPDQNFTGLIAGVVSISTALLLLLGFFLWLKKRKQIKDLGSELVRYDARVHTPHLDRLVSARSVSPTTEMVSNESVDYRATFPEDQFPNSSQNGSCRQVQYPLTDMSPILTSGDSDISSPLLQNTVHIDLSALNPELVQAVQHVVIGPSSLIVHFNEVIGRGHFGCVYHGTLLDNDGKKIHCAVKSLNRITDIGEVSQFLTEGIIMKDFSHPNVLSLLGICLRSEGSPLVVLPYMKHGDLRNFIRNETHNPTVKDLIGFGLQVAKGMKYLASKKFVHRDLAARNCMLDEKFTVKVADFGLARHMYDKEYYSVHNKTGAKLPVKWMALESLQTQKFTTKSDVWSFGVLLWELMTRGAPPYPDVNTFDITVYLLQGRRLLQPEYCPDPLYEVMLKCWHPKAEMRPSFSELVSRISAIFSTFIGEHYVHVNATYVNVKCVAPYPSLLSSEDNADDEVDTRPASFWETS

[7] = target: kinase named in conditions (Homo sapiens, UniProt Q9H2G2); test: as above; conditions: SLK, 10 μM
[8] = target: kinase named in conditions (Homo sapiens, UniProt Q04771); test: as above; conditions: ACVR1 (ALK2), 10 μM
Chain of kinase named in conditions (Homo sapiens, UniProt Q04771) (Q04771 21-509): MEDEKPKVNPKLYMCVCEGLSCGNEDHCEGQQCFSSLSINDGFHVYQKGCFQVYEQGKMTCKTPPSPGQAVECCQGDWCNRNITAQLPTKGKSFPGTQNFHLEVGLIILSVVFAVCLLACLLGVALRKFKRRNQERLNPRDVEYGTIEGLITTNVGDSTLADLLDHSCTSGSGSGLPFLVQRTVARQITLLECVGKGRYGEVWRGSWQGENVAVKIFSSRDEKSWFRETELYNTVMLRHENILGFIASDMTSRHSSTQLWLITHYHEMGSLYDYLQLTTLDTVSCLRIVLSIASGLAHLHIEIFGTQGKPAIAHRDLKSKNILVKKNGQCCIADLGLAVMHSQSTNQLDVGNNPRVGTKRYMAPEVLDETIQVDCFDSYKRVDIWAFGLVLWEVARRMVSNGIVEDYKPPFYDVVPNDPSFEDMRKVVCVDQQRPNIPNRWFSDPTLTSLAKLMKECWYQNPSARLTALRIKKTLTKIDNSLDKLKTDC

[9] = Plasma protein binding, rapid equilibrium dialysis; conditions: for fraction unbound at 4 h, 2 µM: plasma
Protocol: G. Plasma protein binding (PPB):
Method: rapid equilibrium dialysis.
Test System Mouse Plasma (K2EDTA)
Test compound concentration 10 µM (mouse) or 2 µM (rat)

[10] = Brain tissue binding, rapid equilibrium dialysis; format: in vitro ADME, mouse; conditions: for fraction unbound at 5 h, 10 µM: brain homogenate
CYP2C19 = CYP2C19 (Homo sapiens, UniProt P33261); test: CYP450 inhibition in HLM
Chain of CYP2C19 (P33261 whole entry): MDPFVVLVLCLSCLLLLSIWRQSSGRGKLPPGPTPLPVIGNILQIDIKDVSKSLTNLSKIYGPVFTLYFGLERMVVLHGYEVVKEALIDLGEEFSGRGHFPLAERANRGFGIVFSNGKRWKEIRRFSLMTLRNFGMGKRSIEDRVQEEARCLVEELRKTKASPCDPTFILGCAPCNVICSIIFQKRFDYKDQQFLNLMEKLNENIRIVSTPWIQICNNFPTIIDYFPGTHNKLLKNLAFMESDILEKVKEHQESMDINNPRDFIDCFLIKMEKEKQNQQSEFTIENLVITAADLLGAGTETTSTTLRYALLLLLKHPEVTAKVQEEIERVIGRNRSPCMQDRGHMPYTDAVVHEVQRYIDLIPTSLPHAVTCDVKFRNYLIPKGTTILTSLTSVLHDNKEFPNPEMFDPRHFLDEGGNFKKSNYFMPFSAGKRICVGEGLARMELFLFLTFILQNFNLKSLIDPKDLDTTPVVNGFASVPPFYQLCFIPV

CYP450 enzymes = test: CYP time-dependent inactivation (IC50 shift); format: in vitro ADME, human; conditions: HLM preincubation ± NADPH
[11] = target: kinase named in conditions (Homo sapiens, UniProt P49674, R178C); test: SelectScreen kinase profiling, SSBK ZLyte SP Technology; format: biochemical; conditions: CSNK1E (CK1 epsilon) R178C, 10 μM
Protocol: (§1) Kinase selectivity screening was performed by Thermo Fisher Scientific (Paisley, U.K.) in their SelectScreen Biochemical Kinase Profiling Service. Assay information and data are presented in the Supporting Information.
(§2) Kinase selectivity screening was performed by ThermoFisher Scientific (Paisley, U.K.) in their SelectScreenTM
(§3) Biochemical Kinase Profiling service .

[12] = target: kinase named in conditions (Homo sapiens, UniProt P35626); test: as above; format: biochemical; conditions: ADRBK2 (GRK3), 10 μM
Protocol: as §1, §2, §3

[13] = target: kinase named in conditions (Homo sapiens, UniProt P10721, V559D/V654A); test: as above; format: biochemical; conditions: KIT V559D V654A, 10 μM
Protocol: as §1, §2, §3

[14] = target: kinase named in conditions (Homo sapiens, UniProt Q9UPE1); test: as above; format: biochemical; conditions: STK23 (MSSK1), 10 μM
Protocol: as §1, §2, §3

[15] = target: kinase named in conditions (Homo sapiens, UniProt P22607, V555M); test: as above; format: biochemical; conditions: FGFR3 V555M, 10 μM
Chain of kinase named in conditions (Homo sapiens, UniProt P22607, V555M) (P22607 23-806 V555M): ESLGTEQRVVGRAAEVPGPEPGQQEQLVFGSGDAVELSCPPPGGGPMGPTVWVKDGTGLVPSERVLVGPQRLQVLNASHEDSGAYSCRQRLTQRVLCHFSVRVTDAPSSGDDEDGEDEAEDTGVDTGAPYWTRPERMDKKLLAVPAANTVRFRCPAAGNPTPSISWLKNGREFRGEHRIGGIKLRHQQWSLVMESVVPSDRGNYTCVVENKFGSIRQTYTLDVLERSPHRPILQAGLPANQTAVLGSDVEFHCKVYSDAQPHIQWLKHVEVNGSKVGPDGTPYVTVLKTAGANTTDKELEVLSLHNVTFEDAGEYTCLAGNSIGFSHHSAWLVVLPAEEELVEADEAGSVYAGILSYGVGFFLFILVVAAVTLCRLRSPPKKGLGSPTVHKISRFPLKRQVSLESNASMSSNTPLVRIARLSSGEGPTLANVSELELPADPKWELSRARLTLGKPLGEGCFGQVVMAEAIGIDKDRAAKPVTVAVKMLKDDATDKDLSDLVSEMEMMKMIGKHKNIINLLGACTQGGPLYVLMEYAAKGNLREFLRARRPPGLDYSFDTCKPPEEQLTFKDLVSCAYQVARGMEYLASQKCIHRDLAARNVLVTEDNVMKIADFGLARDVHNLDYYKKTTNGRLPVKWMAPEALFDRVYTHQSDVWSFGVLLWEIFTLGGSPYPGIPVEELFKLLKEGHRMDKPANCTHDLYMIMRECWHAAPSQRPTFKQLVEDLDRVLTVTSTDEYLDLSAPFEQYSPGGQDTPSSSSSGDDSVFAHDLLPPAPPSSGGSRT
Protocol: as §1, §2, §3

[16] = target: kinase named in conditions (Homo sapiens, UniProt Q02763, Y897S); test: as above; format: biochemical; conditions: TEK (TIE2) Y897S, 10 μM
Protocol: as §1, §2, §3

[17] = target: kinase named in conditions (Homo sapiens, UniProt Q12866); test: as above; format: biochemical; conditions: MERTK (cMER), 10 μM
Protocol: as §1, §2, §3

[18] = target: kinase named in conditions (Homo sapiens, UniProt P49840); test: as above; format: biochemical; conditions: GSK3A (GSK3 alpha), 10 μM
Protocol: as §1, §2, §3

[19] = target: kinase named in conditions (Homo sapiens, UniProt Q96PF2); test: as above; format: biochemical; conditions: STK22B (TSSK2), 10 μM
Protocol: as §1, §2, §3

[20] = target: kinase named in conditions (Homo sapiens, UniProt P10721, T670I); test: as above; format: biochemical; conditions: KIT T670I, 10 μM
Protocol: as §1, §2, §3

[21] = target: kinase named in conditions (Homo sapiens, UniProt P42684); test: as above; format: biochemical; conditions: ABL2 (Arg), 10 μM
Protocol: as §1, §2, §3

[22] = target: kinase named in conditions (Homo sapiens, UniProt P00519, F317L); test: as above; format: biochemical; conditions: ABL1 F317L, 10 μM
Protocol: as §1, §2, §3

[23] = target: kinase named in conditions (Homo sapiens, UniProt O43781); test: as above; format: biochemical; conditions: DYRK3, 10 μM
Chain of kinase named in conditions (Homo sapiens, UniProt O43781) (O43781 whole entry): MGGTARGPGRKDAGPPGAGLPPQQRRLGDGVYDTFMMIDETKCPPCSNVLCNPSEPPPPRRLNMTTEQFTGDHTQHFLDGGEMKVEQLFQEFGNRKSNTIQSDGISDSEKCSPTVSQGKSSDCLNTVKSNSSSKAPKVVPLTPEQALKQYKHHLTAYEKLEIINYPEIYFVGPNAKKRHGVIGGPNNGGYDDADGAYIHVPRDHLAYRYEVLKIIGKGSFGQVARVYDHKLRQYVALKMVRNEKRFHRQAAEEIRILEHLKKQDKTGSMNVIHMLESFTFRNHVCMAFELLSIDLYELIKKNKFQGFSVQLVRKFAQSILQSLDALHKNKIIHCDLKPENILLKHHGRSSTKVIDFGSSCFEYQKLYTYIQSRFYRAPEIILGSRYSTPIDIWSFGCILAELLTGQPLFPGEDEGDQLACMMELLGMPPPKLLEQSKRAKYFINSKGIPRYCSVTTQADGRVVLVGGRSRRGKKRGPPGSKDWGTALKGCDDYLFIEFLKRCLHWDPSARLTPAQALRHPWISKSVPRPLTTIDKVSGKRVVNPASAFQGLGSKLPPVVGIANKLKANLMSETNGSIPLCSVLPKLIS
Protocol: as §1, §2, §3

[24] = Stability in rat liver microsomes
hERG = target: T1, hERG (Homo sapiens, UniProt Q12809); test: Safety47 hERG assay; format: cell-based
T1 construct: Eurofins (DiscoverX Safety47)
Protocol: Screening for off-target pharmacology across multiple drug target classes was performed in the DiscoverX Safety47 panel as the SAFETYscan E/IC50 ELECT service by Eurofins (San Diego CA, U.S.A.). Assay information and data are presented in the Supporting Information.

[25] = Sprague–Dawley male rats, i.v. 1.0 mg/kg

Compound: FC(F)(F)c1c(Cl)ccc(-n2ccnn2)c1Cl [8l, 1-(2,4-Dichloro-3-(trifluoromethyl)phenyl)-1H-1,2,3-triazole]
- inhibition at 10 µM [1]: 18%
- inhibition at 10 µM [2]: 12%
- inhibition at 10 µM [3]: 15%
- inhibition at 10 µM [4]: -8%
- inhibition at 10 µM [5]: 17%
- inhibition at 10 µM [6]: -13%
- inhibition at 10 µM [7]: 4%
- inhibition at 10 µM [8]: 12%
- fraction unbound at 4 h, 2 µM ([9]; SD, rat, pH 7.4): 0.0552
- fraction unbound at 4 h, 2 µM ([9]; SD, rat, pH 7.4, Plasma protein binding (PPB), % bound, rat plasma): 0.0552
- recovery at 4 h, 2 µM ([9]; SD, rat, rat plasma, pH 7.4): 99.3%
- Plasma protein binding (PPB), % bound ([9]; mouse plasma): 95.8%
- recovery at 5 h, 10 µM ([9]; mouse, mouse plasma (K2EDTA), pH 7.4): 89.9%
- Plasma protein binding (PPB), % bound ([9]; rat plasma): 94.5%
- fraction unbound at 5 h, 10 µM ([10]; 10% w/v in PBS, pH 7.4, mouse, 10 µM, 5 h, read-out: % Unbound in brain homogenate, mean): 0.0298
- Brain binding, % bound ([10]; mouse brain homogenate): 97.0%
- fraction unbound at 5 h, 10 µM ([10]; mouse, 10% w/v in PBS, pH 7.4, mouse brain homogenate, read-out: Brain binding, % bound (converted)): 0.0298
- recovery at 5 h, 10 µM ([10]; mouse, mouse brain homogenate, 10% w/v in PBS, pH 7.4): 107%
- IC50 (CYP2C19): 7.27 µM
- IC50 (CYP2C19; read-out: CYP inhibition IC50, 2C19, HLM): 8.1 µM
- IC50 (CYP2C19; read-out: IC50 CYP2C19/S-Mephenytoin, (+)NADPH pre-incubation): 8.07 µM
- CYP TDI (CYP450 enzymes): no evidence for CYP time-dependent inactivation (TDI); also recorded: negative
- inhibition at 10 µM [11]: -3%
- inhibition at 10 µM [12]: -1%
- inhibition at 10 µM [13]: 1%
- inhibition at 10 µM [14]: 0%
- inhibition at 10 µM [15]: -14%
- inhibition at 10 µM [16]: 2%
- inhibition at 10 µM [17]: 5%
- inhibition at 10 µM [18]: 7%
- inhibition at 10 µM [19]: -2%
- inhibition at 10 µM [20]: 10%
- inhibition at 10 µM [21]: 10%
- inhibition at 10 µM [22]: 16%
- inhibition at 10 µM [23]: 1%
- Liver microsome stability Cli, RLM [24]: < 9.6 μL/min/mg protein
- half-life ([24]; rat, liver microsomes): > 2.42 h
- IC50 (hERG): > 30 µM
- CL [25]: 7.5 mL/min/kg
- Vdss [25]: 2.0 L/kg
- t1/2 [25]: 3.3 h
- Fo (rat, p.o. 10 mg/kg): 140%
- AUC0–inf (rat, p.o. 10 mg/kg, brain): 46 100 ng·h/g
- Tmax (rat, p.o. 10 mg/kg, brain): 0.5 h
- t1/2 (rat, p.o. 10 mg/kg, brain): 8.9 h
- AUC0–inf (rat, p.o. 10 mg/kg, plasma): 32 000 ng·h/mL
- Tmax (rat, p.o. 10 mg/kg, plasma): 4.0 h
- t1/2 (rat, p.o. 10 mg/kg, plasma): 4.7 h

Source: PMC9150124, “Design of a Potent, Selective, and Brain-Penetrant Inhibitor of Wnt-Deactivating Enzyme Notum by Optimization of a Crystallographic Fragment Hit” (Journal of Medicinal Chemistry, 2022)
